According to the CheMixHub viscosity set:

Assay: xn = mol fraction of the nth substance listed

NC=O + CCCO
Conditions | viscosity [mPa·s]
293.15 K, 101 kPa, x1 = 0.0557 | 2.16
293.15 K, 101 kPa, x1 = 0.1172 | 2.201
293.15 K, 101 kPa, x1 = 0.1854 | 2.285
293.15 K, 101 kPa, x1 = 0.2615 | 2.419
298.15 K, 100 kPa, x1 = 0.0744 | 1.97
298.15 K, 100 kPa, x1 = 0.116 | 1.98
298.15 K, 100 kPa, x1 = 0.1885 | 2.07
298.15 K, 100 kPa, x1 = 0.294 | 2.27
298.15 K, 100 kPa, x1 = 0.3225 | 2.33
298.15 K, 100 kPa, x1 = 0.331 | 2.4
298.15 K, 100 kPa, x1 = 0.4121 | 2.54
298.15 K, 100 kPa, x1 = 0.4562 | 2.61
298.15 K, 100 kPa, x1 = 0.4974 | 2.73
298.15 K, 100 kPa, x1 = 0.5225 | 2.76
298.15 K, 100 kPa, x1 = 0.6129 | 2.96
298.15 K, 100 kPa, x1 = 0.6877 | 3.09
298.15 K, 100 kPa, x1 = 0.7379 | 3.17
298.15 K, 100 kPa, x1 = 0.8232 | 3.28
298.15 K, 100 kPa, x1 = 0.8536 | 3.31
298.15 K, 100 kPa, x1 = 0.9169 | 3.36
298.15 K, 100 kPa, x1 = 0.9506 | 3.34
298.15 K, 101 kPa, x1 = 0.0557 | 1.938
298.15 K, 101 kPa, x1 = 0.1172 | 1.976
298.15 K, 101 kPa, x1 = 0.1854 | 2.052
298.15 K, 101 kPa, x1 = 0.2615 | 2.181
303.15 K, 101 kPa, x1 = 0.0557 | 1.742
303.15 K, 101 kPa, x1 = 0.1172 | 1.775
303.15 K, 101 kPa, x1 = 0.1854 | 1.846
303.15 K, 101 kPa, x1 = 0.2615 | 1.962
303.15 K, 101 kPa, x2 = 0.0999 | 2.877
303.15 K, 101 kPa, x2 = 0.2004 | 2.813
303.15 K, 101 kPa, x2 = 0.3002 | 2.706
303.15 K, 101 kPa, x2 = 0.4 | 2.554
303.15 K, 101 kPa, x2 = 0.5 | 2.378
303.15 K, 101 kPa, x2 = 0.6 | 2.191
303.15 K, 101 kPa, x2 = 0.6998 | 2.022
303.15 K, 101 kPa, x2 = 0.8 | 1.87
303.15 K, 101 kPa, x2 = 0.9001 | 1.756
303.15 K, 101.3 kPa, x1 = 0.0961 | 1.6
303.15 K, 101.3 kPa, x1 = 0.1755 | 1.7
303.15 K, 101.3 kPa, x1 = 0.2494 | 1.8
303.15 K, 101.3 kPa, x1 = 0.3192 | 1.9
303.15 K, 101.3 kPa, x1 = 0.3902 | 2
303.15 K, 101.3 kPa, x1 = 0.4629 | 2.1
303.15 K, 101.3 kPa, x1 = 0.5342 | 2.2
303.15 K, 101.3 kPa, x1 = 0.614 | 2.4
303.15 K, 101.3 kPa, x1 = 0.6891 | 2.6
303.15 K, 101.3 kPa, x1 = 0.7654 | 2.7
303.15 K, 101.3 kPa, x1 = 0.8114 | 2.7
303.15 K, 101.3 kPa, x1 = 0.921 | 2.8
308.15 K, 101 kPa, x1 = 0.0557 | 1.584
308.15 K, 101 kPa, x1 = 0.1172 | 1.618
308.15 K, 101 kPa, x1 = 0.1854 | 1.678
308.15 K, 101 kPa, x1 = 0.2615 | 1.798
308.15 K, 101 kPa, x2 = 0.0999 | 2.554
308.15 K, 101 kPa, x2 = 0.2004 | 2.492
308.15 K, 101 kPa, x2 = 0.3002 | 2.393
308.15 K, 101 kPa, x2 = 0.4 | 2.261
308.15 K, 101 kPa, x2 = 0.5 | 2.11
308.15 K, 101 kPa, x2 = 0.6 | 1.949
308.15 K, 101 kPa, x2 = 0.6998 | 1.802
308.15 K, 101 kPa, x2 = 0.8 | 1.669
308.15 K, 101 kPa, x2 = 0.9001 | 1.569
308.15 K, 101.3 kPa, x1 = 0.0961 | 1.4
308.15 K, 101.3 kPa, x1 = 0.1755 | 1.5
308.15 K, 101.3 kPa, x1 = 0.2494 | 1.5
308.15 K, 101.3 kPa, x1 = 0.3192 | 1.6
308.15 K, 101.3 kPa, x1 = 0.3902 | 1.7
308.15 K, 101.3 kPa, x1 = 0.4629 | 1.8
308.15 K, 101.3 kPa, x1 = 0.5342 | 1.9
308.15 K, 101.3 kPa, x1 = 0.614 | 2.1
308.15 K, 101.3 kPa, x1 = 0.6891 | 2.2
308.15 K, 101.3 kPa, x1 = 0.7654 | 2.3
308.15 K, 101.3 kPa, x1 = 0.8114 | 2.4
308.15 K, 101.3 kPa, x1 = 0.921 | 2.5
313.15 K, 101 kPa, x1 = 0.0557 | 1.349
313.15 K, 101 kPa, x1 = 0.1172 | 1.388
313.15 K, 101 kPa, x1 = 0.1854 | 1.457
313.15 K, 101 kPa, x1 = 0.2615 | 1.595
313.15 K, 101 kPa, x2 = 0.0999 | 2.285
313.15 K, 101 kPa, x2 = 0.2004 | 2.223
313.15 K, 101 kPa, x2 = 0.3002 | 2.133
313.15 K, 101 kPa, x2 = 0.4 | 2.015
313.15 K, 101 kPa, x2 = 0.5 | 1.881
313.15 K, 101 kPa, x2 = 0.6 | 1.74
313.15 K, 101 kPa, x2 = 0.6998 | 1.61
313.15 K, 101 kPa, x2 = 0.8 | 1.494
313.15 K, 101 kPa, x2 = 0.9001 | 1.407
313.15 K, 101.3 kPa, x1 = 0.0961 | 1.3
313.15 K, 101.3 kPa, x1 = 0.1755 | 1.3
313.15 K, 101.3 kPa, x1 = 0.2494 | 1.4
313.15 K, 101.3 kPa, x1 = 0.3192 | 1.5
313.15 K, 101.3 kPa, x1 = 0.3902 | 1.6
313.15 K, 101.3 kPa, x1 = 0.4629 | 1.7
313.15 K, 101.3 kPa, x1 = 0.5342 | 1.7
313.15 K, 101.3 kPa, x1 = 0.614 | 1.9
313.15 K, 101.3 kPa, x1 = 0.6891 | 2
313.15 K, 101.3 kPa, x1 = 0.7654 | 2.1
313.15 K, 101.3 kPa, x1 = 0.8114 | 2.1
313.15 K, 101.3 kPa, x1 = 0.921 | 2.2
318.15 K, 101 kPa, x1 = 0.0557 | 1.219
318.15 K, 101 kPa, x1 = 0.1172 | 1.263
318.15 K, 101 kPa, x1 = 0.1854 | 1.333
318.15 K, 101 kPa, x2 = 0.0999 | 2.056
318.15 K, 101 kPa, x2 = 0.2004 | 1.995
318.15 K, 101 kPa, x2 = 0.3002 | 1.912
318.15 K, 101 kPa, x2 = 0.4 | 1.804
318.15 K, 101 kPa, x2 = 0.5 | 1.685
318.15 K, 101 kPa, x2 = 0.6 | 1.561
318.15 K, 101 kPa, x2 = 0.6998 | 1.447
318.15 K, 101 kPa, x2 = 0.8 | 1.344
318.15 K, 101 kPa, x2 = 0.9001 | 1.266
318.15 K, 101.3 kPa, x1 = 0.0961 | 1.1
318.15 K, 101.3 kPa, x1 = 0.1755 | 1.1
318.15 K, 101.3 kPa, x1 = 0.2494 | 1.2
318.15 K, 101.3 kPa, x1 = 0.3192 | 1.3
318.15 K, 101.3 kPa, x1 = 0.3902 | 1.4
318.15 K, 101.3 kPa, x1 = 0.4629 | 1.5
318.15 K, 101.3 kPa, x1 = 0.5342 | 1.5
318.15 K, 101.3 kPa, x1 = 0.614 | 1.6
318.15 K, 101.3 kPa, x1 = 0.6891 | 1.7
318.15 K, 101.3 kPa, x1 = 0.7654 | 1.8
318.15 K, 101.3 kPa, x1 = 0.8114 | 1.9
318.15 K, 101.3 kPa, x1 = 0.921 | 1.9
323.15 K, 101 kPa, x2 = 0.0999 | 1.86
323.15 K, 101 kPa, x2 = 0.2004 | 1.801
323.15 K, 101 kPa, x2 = 0.3002 | 1.722
323.15 K, 101 kPa, x2 = 0.4 | 1.624
323.15 K, 101 kPa, x2 = 0.5 | 1.517
323.15 K, 101 kPa, x2 = 0.6 | 1.405
323.15 K, 101 kPa, x2 = 0.6998 | 1.304
323.15 K, 101 kPa, x2 = 0.8 | 1.212
323.15 K, 101 kPa, x2 = 0.9001 | 1.141
323.15 K, 101.3 kPa, x1 = 0.0961 | 0.92
323.15 K, 101.3 kPa, x1 = 0.1755 | 0.95
323.15 K, 101.3 kPa, x1 = 0.2494 | 1
323.15 K, 101.3 kPa, x1 = 0.3192 | 1.05
323.15 K, 101.3 kPa, x1 = 0.3902 | 1.1
323.15 K, 101.3 kPa, x1 = 0.4629 | 1.2
323.15 K, 101.3 kPa, x1 = 0.5342 | 1.3
323.15 K, 101.3 kPa, x1 = 0.614 | 1.3
323.15 K, 101.3 kPa, x1 = 0.6891 | 1.4
323.15 K, 101.3 kPa, x1 = 0.7654 | 1.5
323.15 K, 101.3 kPa, x1 = 0.8114 | 1.5
323.15 K, 101.3 kPa, x1 = 0.921 | 1.6
